Measurements reported in ChEMBL document CHEMBL3885861, “Open TG-GATES”.

Organism: Rattus norvegicus
Assay: Open TG-GATES - Regimen: Single
Type: toxicity, organism-based, Sprague-Dawley
Design: regimen Single, gender Male, age 6 weeks
Settings: in vivo, po, 120 mg/kg, route gavage, dose level Middle; for APTT / Bas / Eos / Fbg / Hb / Ht / Lym / MCH / MCHC / MCV / Mono / Neu / PT / Plat / RBC / Ret / WBC: tissue Blood; for KIDNEY_L / KIDNEY_R / KIDNEY_TOTAL: tissue Kidney; for LIVER: tissue Liver; for A/G / ALP / ALT / AST / BUN / CRE / Ca / Cl / DBIL / GLC / IP / K / LDH / Na / PL / RALB / TBIL / TC / TG / TP / gamma-GTP: tissue Plasma

Work on `COc1ccc(Cc2nccc3cc(OC)c(OC)cc23)cc1OC` [PAPAVERINE] yielded a TERMINAL_BW (3 h) of 221.6 g, an APTT (3 h) of 22.7 s and a Bas (3 h) of 0%. The Eos (3 h) was 1%, the Fbg (3 h) was 312.8 mg/dL and the Hb (3 h) was 13.4 g/dL. For the same compound, the Ht (3 h) was 40.5%, the Lym (3 h) was 77.6% and the MCH (3 h) was 20.9 pg. It also gave an MCHC (3 h) of 33.2%, an MCV (3 h) of 63 fL and a Mono (3 h) of 2.4%. The Neu (3 h) was 17.8%, the PT (3 h) was 15.9 s and the Plat (3 h) was 108.5 x10_4/uL. It also gave an RBC (3 h) of 641.8 x10_4/ul, a Ret (3 h) of 7.3% and a WBC (3 h) of 88.5 x10_2/uL. The KIDNEY_L (3 h) was 0.9 g, the KIDNEY_R (3 h) was 1 g and the KIDNEY_TOTAL (3 h) was 1.9 g. The LIVER (3 h) was 9.5 g, the A/G (3 h) was 1.2 and the ALP (3 h) was 1542 IU/L. It also gave an ALT (3 h) of 43.6 IU/L, an AST (3 h) of 78.6 IU/L and a BUN (3 h) of 11.4 mg/dL. For the same compound, the CRE (3 h) was 0.1 mg/dL, the Ca (3 h) was 11 mg/dL and the Cl (3 h) was 107.8 meq/L. The DBIL (3 h) was 0 mg/dL, the GLC (3 h) was 181.4 mg/dL and the IP (3 h) was 8.7 mg/dL. The K (3 h) was 4 meq/L, the LDH (3 h) was 162.8 IU/L and the Na (3 h) was 141.8 meq/L. It also gave a PL (3 h) of 128.4 mg/dL, an RALB (3 h) of 2.9 g/dL and a TBIL (3 h) of 0.008 mg/dL. It also gave a TC (3 h) of 74.6 mg/dL, a TG (3 h) of 43.8 mg/dL and a TP (3 h) of 5.3 g/dL. It also gave a gamma-GTP (3 h) of 2 IU/L, a TERMINAL_BW (6 h) of 219.8 g and an APTT (6 h) of 20.9 s. The Bas (6 h) was 0%, the Eos (6 h) was 0.8% and the Fbg (6 h) was 317.8 mg/dL. The Hb (6 h) was 13 g/dL, the Ht (6 h) was 39.5% and the Lym (6 h) was 80.2%. The MCH (6 h) was 20.9 pg, the MCHC (6 h) was 32.9% and the MCV (6 h) was 63.7 fL. The Mono (6 h) was 2.8%, the Neu (6 h) was 14.6% and the PT (6 h) was 15.8 s. The Plat (6 h) was 131.3 x10_4/uL, the RBC (6 h) was 622.4 x10_4/ul and the Ret (6 h) was 8.7%. For the same compound, the WBC (6 h) was 116 x10_2/uL, the KIDNEY_L (6 h) was 1 g and the KIDNEY_R (6 h) was 1 g. It also gave a KIDNEY_TOTAL (6 h) of 1.9 g, an LIVER (6 h) of 9.5 g and an A/G (6 h) of 1.3. It also gave an ALP (6 h) of 1418.8 IU/L, an ALT (6 h) of 36.6 IU/L and an AST (6 h) of 71.6 IU/L. For the same compound, the BUN (6 h) was 11.2 mg/dL, the CRE (6 h) was 0.2 mg/dL and the Ca (6 h) was 11.4 mg/dL. For the same compound, the Cl (6 h) was 107.2 meq/L, the DBIL (6 h) was 0 mg/dL and the GLC (6 h) was 181 mg/dL. The IP (6 h) was 9.4 mg/dL, the K (6 h) was 4.3 meq/L and the LDH (6 h) was 166.2 IU/L. For the same compound, the Na (6 h) was 140.4 meq/L, the PL (6 h) was 137.4 mg/dL and the RALB (6 h) was 3.1 g/dL. For the same compound, the TBIL (6 h) was 0.022 mg/dL, the TC (6 h) was 78.2 mg/dL and the TG (6 h) was 63.8 mg/dL. It also gave a TP (6 h) of 5.5 g/dL, a gamma-GTP (6 h) of 2.4 IU/L and a TERMINAL_BW (9 h) of 217.8 g. The APTT (9 h) was 22.6 s, the Bas (9 h) was 0% and the Eos (9 h) was 1%. The Fbg (9 h) was 319.4 mg/dL, the Hb (9 h) was 13.2 g/dL and the Ht (9 h) was 39.5%. For the same compound, the Lym (9 h) was 73.8%, the MCH (9 h) was 20.6 pg and the MCHC (9 h) was 33.4%. It also gave an MCV (9 h) of 61.8 fL, a Mono (9 h) of 2.8% and a Neu (9 h) of 22%. The PT (9 h) was 16.2 s, the Plat (9 h) was 117.1 x10_4/uL and the RBC (9 h) was 638.6 x10_4/ul. For the same compound, the Ret (9 h) was 6.6%, the WBC (9 h) was 87.6 x10_2/uL and the KIDNEY_L (9 h) was 0.9 g. It also gave a KIDNEY_R (9 h) of 1 g, a KIDNEY_TOTAL (9 h) of 1.9 g and an LIVER (9 h) of 8.9 g. It also gave an A/G (9 h) of 1.2, an ALP (9 h) of 1569.2 IU/L and an ALT (9 h) of 39.2 IU/L. For the same compound, the AST (9 h) was 72 IU/L, the BUN (9 h) was 11.6 mg/dL and the CRE (9 h) was 0.1 mg/dL. For the same compound, the Ca (9 h) was 11 mg/dL, the Cl (9 h) was 107.6 meq/L and the DBIL (9 h) was 0 mg/dL. For the same compound, the GLC (9 h) was 183.8 mg/dL, the IP (9 h) was 8.9 mg/dL and the K (9 h) was 3.9 meq/L. It also gave an LDH (9 h) of 183.2 IU/L, a Na (9 h) of 141 meq/L and a PL (9 h) of 132.8 mg/dL. The RALB (9 h) was 3 g/dL, the TBIL (9 h) was 0.022 mg/dL and the TC (9 h) was 74 mg/dL. The TG (9 h) was 54.6 mg/dL, the TP (9 h) was 5.4 g/dL and the gamma-GTP (9 h) was 1.6 IU/L. The TERMINAL_BW (24 h) was 231.5 g, the APTT (24 h) was 19.5 s and the Bas (24 h) was 0%. For the same compound, the Eos (24 h) was 1%, the Fbg (24 h) was 327.8 mg/dL and the Hb (24 h) was 13.3 g/dL. The Ht (24 h) was 39.7%, the Lym (24 h) was 80.2% and the MCH (24 h) was 21 pg. The MCHC (24 h) was 33.5%, the MCV (24 h) was 62.7 fL and the Mono (24 h) was 2%. The Neu (24 h) was 15.2%, the PT (24 h) was 15.6 s and the Plat (24 h) was 124.7 x10_4/uL. It also gave an RBC (24 h) of 633.8 x10_4/ul, a Ret (24 h) of 7.6% and a WBC (24 h) of 82.4 x10_2/uL. It also gave a KIDNEY_L (24 h) of 1 g, a KIDNEY_R (24 h) of 1 g and a KIDNEY_TOTAL (24 h) of 2 g. For the same compound, the LIVER (24 h) was 11.2 g, the A/G (24 h) was 1.3 and the ALP (24 h) was 1530.4 IU/L. The ALT (24 h) was 39.4 IU/L, the AST (24 h) was 67.6 IU/L and the BUN (24 h) was 15 mg/dL. The CRE (24 h) was 0.1 mg/dL, the Ca (24 h) was 11.1 mg/dL and the Cl (24 h) was 105.8 meq/L. It also gave a DBIL (24 h) of 0 mg/dL, a GLC (24 h) of 189 mg/dL and an IP (24 h) of 7.8 mg/dL. It also gave a K (24 h) of 4.2 meq/L, an LDH (24 h) of 171.2 IU/L and a Na (24 h) of 143.4 meq/L. It also gave a PL (24 h) of 152.4 mg/dL, an RALB (24 h) of 3.1 g/dL and a TBIL (24 h) of 0.006 mg/dL. The TC (24 h) was 79.2 mg/dL, the TG (24 h) was 145.2 mg/dL and the TP (24 h) was 5.6 g/dL. It also gave a gamma-GTP (24 h) of 1.4 IU/L.
